The nature of series [1]: Solvent stability of low melt form: slurrying in H2O:EtOH (90:10). Type of series: physicochemical. Conditions: slurry in H2O:EtOH (90:10). As for the experimental part: 17-AAG may be prepared from geldanamycin by reacting with allyamine in dry THF under a nitrogen atmosphere. The crude product may be purified by slurrying in H2O:EtOH (90:10), and the washed crystals obtained have a melting point of 206-212° C. by capillary melting point technique. […] The two 17-AAG products are designated as the low melt form and high melt form.
MP=147-175° C. ^1H NMR and HPLC are consistent with the desired product.

The subject of series [2] is ZAP70 in CLL B cells (CD3−, ZAP70+). In words: Two-color flow cytometry of ZAP70 expression in white blood cells of a ZAP70+ CLL patient: CLL B cells. The class given is cell-based, human. The conditions noted are these: 300 nM, 24 hours at 37° C., untreated 85%. As for the experimental part: (§1) The upper right quadrant were normal T-cells (CD3+, ZAP70+) the lower right quadrant were (CD3−, ZAP70+); the upper left quadrant is CD3+, ZAP70−; and the lower left quadrant is CD3−, ZAP70−.
(§2) (right panel). Levels of ZAP70 protein expression were measured by two color indirect immunofluorescence with specific anti-CD3 antibodies conjugated to phycoerytirin and anti-ZAP70 antibodies conjugated to Alexa-488 dye and analyzed by flow cytometry. CD3 is a specific marker of T cells. […] As shown in the untreated cells (left panel), approximately 5% of the cells were normal T-cells (CD3+, ZAP70+, upper right quadrant) and ˜85% of the cells were ZAP70+ CLL B cells (CD3−, ZAP70+, lower right quadrant). […] This is important because B-CLL patients are chronically immunosuppressed by their disease, so avoidance of effects on normal T-cell function performed by ZAP70 is clearly beneficial.
(§3) The samples were than prepared for flow cytometry analysis by a method described in Rassebti et al. supra. […] Levels of ZAP70 protein expression were measured by flow cytometry (FACSCalibur, BD Biosciences) and Flow-Jo software, version 2.7.4 (Tree Star).

Another series concerns ZAP70− CLL B cells. Description: Viability (100%-% apoptotic cells) by DiOC6 and propidium iodide staining. The conditions noted are these: Homo sapiens, B-cell, 48 h, read-out: average % viability.
Series [3] deals with ZAP70 in ZAP70+ CLL B cells. In words: ZAP70 protein expression by indirect immunofluorescence and FACS analysis. Type of series: cell-based, human. Conditions: ZAP70+ CLL B cells of one patient, 24 hours at 37° C. (In general: A flow cytometer gives signals particle by particle.)
Method: Levels of ZAP70 protein expression were measured by indirect immunofluorescence of permeabilized cells with specific anti-ZAP70 antibodies and FACS analysis.
The conditions of series [4]: cited from earlier work.
Series [5] concerns ZAP70 in normal T-cells (CD3+, ZAP70+). In words: Two-color flow cytometry of ZAP70 expression in white blood cells of a ZAP70+ CLL patient: normal T-cells. Conditions: 300 nM, 24 hours at 37° C., untreated 4.5%. The class given is cell-based, human. As for the experimental part: as §1, §2, §3

Values joined by “and” are separate entries in the source; they are usually repeats but may differ in a detail not shown here. Identical values can stand only once.

Take `C=CCNC1=C2C[C@@H](C)C[C@H](OC)[C@H](O)[C@@H](C)/C=C(\C)[C@H](OC(N)=O)[C@@H](OC)/C=C\C=C(/C)C(=O)NC(=CC1=O)C2=O` [low melt form, 17-allylamino-17-demethoxygeldanamycin]: the “stability of the low melt form (conversion to high melt form)” value in series [1] is “no conversion to the high melt form was observed”.
As for `C=CCNC1=C2CC(C)CC(OC)C(O)C(C)/C=C(\C)C(OC(N)=O)C(OC)/C=C\C=C(/C)C(=O)NC(=CC1=O)C2=O` (stereo not drawn) [Compound 17-AAG, 17-allylamino-17-demethoxygeldanamycin], the average % viability in the series on ZAP70+ CLL B cells (0.1 µM) was 45.74+/−3.177%. Further, in the series with ZAP70+ CLL B cells (100 nM, 37° C., cells of one ZAP70+ patient), the “time to reach 50% cell mortality” value was “approximately 48 hours”. Besides, the IC50 in the series on ZAP70+ CLL B cells (read-out: 50% inhibitory concentration (IC50), cell killing, 48 hours at 37° C., cells of one ZAP70+ patient) is about 80 nM. The “% positive cells (ZAP70) after treatment” value in series [2] was found to be 34%. The viability at 0.1 µM with ZAP70− CLL B cells was 93%. For the same compound, in series [3], the “degradation of ZAP70” value is “dose-dependently induced degradation of ZAP70”. The “maximum tolerated dose (MTD)” value in series [4] (daily 1-hour infusion for 5 days every three weeks) was 40 mg/m^2. In series [4] (human, in vivo), the clearance is 41.0 ± 13.5 L/h and the terminal half-life was 2.5 ± 0.5 h. In addition, the Cmax in series [4] (read-out: Plasma Cmax, human, in vivo) is 1860 nM and 3170 nM. In series [5], the “% positive cells (ZAP70) after treatment” value was 4.2%.

A word on the viability: it is the share of living cells, or the viability signal relative to a control. As usually defined, the clearance is the volume of plasma or blood freed of the substance per unit of time. Usually Cmax stands for the peak of the concentration-time curve.

The record behind these values is patent US20080280878A1, “Methods and Compositions for Treating Chronic Lymphocytic Leukemia” (priority 2004, published 2008).
